# From patent US20060074109A1, “Use of inhibitors of 24-hydroxylase in the treatment of cancer” (Sapphire Therapeutics, Inc., priority 2004, published 2006)
# Legend:
# Type in all cases: cell-based, human
# [1] = system: OVCAR-3 cells; assay: Cell growth assay, crystal violet, 11 days; conditions: 11 days
# Description: (§1) The human ovarian adenocarcinoma cell line, OVCAR-3 (ATCC, Manassas, Va.) was maintained, as recommended by the supplier, in RPMI 1640 medium (Sigma Aldrich, St. Louis, Mo.) supplemented with 10% FBS, 10 μg/ml insulin, 0.25% glucose and antibiotics (100 IU/ml penicillin, 100 μg/ml streptomycin). Human ovarian adenocarcinoma cell lines UT-OC-1, UT-OC-2, UT-OC-3, UT-OC-4, UT-OC-5 (Grenman, S., Engblom, P., Rantanen, V., Klemi, P. and Isola, J., “Cytogenetic Characterization of Five New Ovarian Carcinoma Cell Lines,” Acta Obstet. Gynecol. Scand., 76:83 (1997)) and SK-OV-3 and a human keratinocyte cell line HaCaT were grown in DMEM (Sigma Aldrich) with 10% FBS and antibiotics (100 IU/ml penicillin, 100 μg/ml streptomycin), and monkey kidney COS cells were maintained in DMEM/F12 (Sigma Aldrich) with 5% FBS. All cell lines were kept at 37° C. in a humidified 95% air/5% CO2 incubator.
# (§2) When OVCAR-3 cells were on the logarithmic growth phase (70% confluent) the growth assay was started. For cell growth assay, 2,000 cell/200 μl/well were plated on 96-well culture plates. […] Ethanol was used as a vehicle, and it was also included in the control. The medium containing ethanol vehicle and/or hormones were changed to a fresh one every third day. Cell growth samples were taken 0, 1, 3, 5, 7, 9 and 11 days after the treatment.
# (§3) Relative cell numbers were quantified as described previously (Kueng W, Silber E, Eppenberger U. Quantification of cells cultured on 96-well plates. Anal. Biochem., 182:16-9 (1989)). Cells were fixed on the bottom of the wells by addition of 10 μl of 11% glutaraldehyde solution in 0.1% phosphate buffer to 100 μl of medium. The plate was shaken 500 cycles/min for 15 min, washed 3 times by submersion in de-ionised water and air-dried. Fixed cells were stained with 0.1% solution of crystal violet dissolved in de-ionised water. After 20 min incubation, excess dye was removed by carefully washing with de-ionised water. The plate was air-dried prior to a bound dye solubilisation in 100 μl of 10% acetic acid. Relative cell number was given as absorbance units by measuring the optical density (590 nm) from each well using Victor 1420 multilabel counter (Wallac, Turku, Finland). Six determinations were used to calculate the mean optical density ±SD in each concentration at each time point. The absorbance value of day 0 (an overnight culture of 2,000 cells/well) was set as 0 by subtracting it from each value obtained from adjacent time-point measurements (days 1-11), and based on these values growth curves were created. Experiments were repeated 3-5 times. Day 11 was used to compare the effect of hormone treatments and 24OHase inhibitor. Statistical analyses were done using Student's t-test.
# The cell growth response was determined as described in Experiment I. Briefly, cells were treated with indicated hormone concentrations or combinations of hormone and 24OHase inhibitor (VID400) for 11 days. The growth medium and hormones were changed to a fresh one every third day. After the treatment period, cells were fixed, stained with crystal violet, and the optical density (590 nm) was determined. The cell growth is presented as a percentage of ethanol-treated cells. The values represent the mean of 3 separate experiments ±SD. (*p<0.05, **p<0.001, ***p<0.0001, Student's t-test).
# (§4) Cell growth samples were obtained after 11 days treatment.
# [2] = system: UT-OC-4 cells; assay: Cell growth assay, crystal violet, 11 days; conditions: 100 nM alone, 11 days
# Description: as §1, §2, §3, §4
# [3] = system: UT-OC-1 cells; assay: Cell growth assay, crystal violet, 11 days; conditions: 100 nM alone, 11 days
# Description: as §1, §2, §3, §4
# [4] = system: 24OHase mRNA in UT-OC-5 cells; assay: RPA and RT-PCR of 24OHase induction; conditions: 24 h
# Text: (§5) Briefly, ^32P-labelled ([α-^32P]UTP, Amersham Biosciences, Buckinghamshire, UK) RNA-probes were synthesised using in vitro transcription reaction (In vitro transcription reaction kit, Pharmingen, San Diego, Calif.) using two different template sets.
# (§6) RPLP0 was used as reference gene.
# [5] = system: 24OHase mRNA in OVCAR-3 cells; assay: Quantitative RT-PCR of 24OHase mRNA; conditions: 100 nM
# Description: Ethanol was used as a vehicle, and it was also added to the control cells. For RNA extraction, the cells were collected 4, 6 and 24 hr after the treatment with vitamin D compound or vehicle. RNA extractions were done with TRIZOL reagent (GIBCO Invitrogen Corporation, Paisley, UK). The integrity of RNA samples was confirmed on gel electrophoresis. […] The reactions for 24-hydroxylase were performed in the LightCycler instrument (Roche Diagnostics, Basel, Switzerland) from 300 ng total RNA. PBGD (human porphobilinogendeaminase) mRNA was used as an […] control. […] Nucleotides, Tth DNA polymerase (DNA polymerase and reverse transcriptase activity), SYBR Green I and reaction buffer were included in the LightCycler-RNA Master SYBR Green I kit (Roche Diagnostics). […] Cell. […] Detection of fluorescent product was performed at the end of the extension step of each cycle. To verify the specific products, melting curve analysis and gel electrophoresis were done. The data were quantified by the Fit Points method with LightCycler Data Analysis software. […] Hormone treatments and RT-PCR were done twice.
# [6] = system: VDR mRNA in UT-OC-1 cells; assay: RPA and quantitative RT-PCR of receptor mRNA; conditions: 100 nM, 24 hour
# Text: as §5, §6
# [7] = system: RARγ mRNA in SK-OV-3 cells; assay: RPA and quantitative RT-PCR of receptor mRNA; conditions: 100 nM, 24 hour
# Text: as §5, §6
# [8] = system: RARγ mRNA in UT-OC-1 cells; assay: RPA and quantitative RT-PCR of receptor mRNA; conditions: 100 nM, 24 hour
# Text: as §5, §6
# [9] = system: RARα mRNA in SK-OV-3 cells; assay: RPA and quantitative RT-PCR of receptor mRNA; conditions: 100 nM, 24 hour
# Text: as §5, §6
# [10] = system: 24OHase mRNA in ovarian cancer cell lines; assay: RPA and RT-PCR of 24OHase induction, all cell lines; conditions: 100 nM, 24 h, every cell line
# Text: as §5, §6
smiles,measurement,setting,value
C=C1/C(=C\C=C2/CCC[C@]3(C)[C@@H]([C@H](C)/C=C/C=C/C(O)(CC)CC)CC[C@@H]23)C[C@@H](O)C[C@@H]1O [EB 1089],inhibition at 0.001 µM,"[1]; Homo sapiens, OVCAR-3, 264 h, 1 nM, read-out: inhibited growth compared to the control",73%
same,inhibition at 0.1 µM,"[1]; Homo sapiens, OVCAR-3, 264 h, 100 nM, read-out: inhibited growth compared to the control",84%
same,effect on cell proliferation,"[1]; alone (10 or 100 nM), Experiment V",markedly inhibited the proliferation
same,effect on cell growth,[2],did not restrain cell growth
same,effect on cell growth,[3],did not inhibit the cell growth
same,"24OHase induction relative to 100 nM 1,25(OH)2D3",[4],more than two-fold stronger inducer
same,induction of 24OHase mRNA expression,[5]; 6 hr treatment,600 fold
same,induction of 24OHase mRNA expression,[5]; 24 hr treatment,"1,000 fold"
same,VDR expression,[6],47±8 % of control
same,increase of RARγ compared to control,[7],51±7%
same,up regulation of RARγ compared to control,[8],47±7%
same,RARα expression,[9],134±10 % of control
same,"induction of 24OHase expression compared with 1,25(OH)2D3",[10],more effective in inducing 24OHase expression
